Counter-ions that a name gives are not always drawn.
Key:
[1] = target: T1, ACE (purified by lung rabbit, EC 3.4.15.1) (Oryctolagus cuniculus, UniProt P12822); experiment: In vitro ACE-inhibitory activity (FAPGG substrate, spectrophotometric); format: biochemical; details: 37° C.; FAPGG 0.8 mM
T1 construct: purchased SIGMA; host or cells: rabbit lung
T1 sequence (P12822 34-1310): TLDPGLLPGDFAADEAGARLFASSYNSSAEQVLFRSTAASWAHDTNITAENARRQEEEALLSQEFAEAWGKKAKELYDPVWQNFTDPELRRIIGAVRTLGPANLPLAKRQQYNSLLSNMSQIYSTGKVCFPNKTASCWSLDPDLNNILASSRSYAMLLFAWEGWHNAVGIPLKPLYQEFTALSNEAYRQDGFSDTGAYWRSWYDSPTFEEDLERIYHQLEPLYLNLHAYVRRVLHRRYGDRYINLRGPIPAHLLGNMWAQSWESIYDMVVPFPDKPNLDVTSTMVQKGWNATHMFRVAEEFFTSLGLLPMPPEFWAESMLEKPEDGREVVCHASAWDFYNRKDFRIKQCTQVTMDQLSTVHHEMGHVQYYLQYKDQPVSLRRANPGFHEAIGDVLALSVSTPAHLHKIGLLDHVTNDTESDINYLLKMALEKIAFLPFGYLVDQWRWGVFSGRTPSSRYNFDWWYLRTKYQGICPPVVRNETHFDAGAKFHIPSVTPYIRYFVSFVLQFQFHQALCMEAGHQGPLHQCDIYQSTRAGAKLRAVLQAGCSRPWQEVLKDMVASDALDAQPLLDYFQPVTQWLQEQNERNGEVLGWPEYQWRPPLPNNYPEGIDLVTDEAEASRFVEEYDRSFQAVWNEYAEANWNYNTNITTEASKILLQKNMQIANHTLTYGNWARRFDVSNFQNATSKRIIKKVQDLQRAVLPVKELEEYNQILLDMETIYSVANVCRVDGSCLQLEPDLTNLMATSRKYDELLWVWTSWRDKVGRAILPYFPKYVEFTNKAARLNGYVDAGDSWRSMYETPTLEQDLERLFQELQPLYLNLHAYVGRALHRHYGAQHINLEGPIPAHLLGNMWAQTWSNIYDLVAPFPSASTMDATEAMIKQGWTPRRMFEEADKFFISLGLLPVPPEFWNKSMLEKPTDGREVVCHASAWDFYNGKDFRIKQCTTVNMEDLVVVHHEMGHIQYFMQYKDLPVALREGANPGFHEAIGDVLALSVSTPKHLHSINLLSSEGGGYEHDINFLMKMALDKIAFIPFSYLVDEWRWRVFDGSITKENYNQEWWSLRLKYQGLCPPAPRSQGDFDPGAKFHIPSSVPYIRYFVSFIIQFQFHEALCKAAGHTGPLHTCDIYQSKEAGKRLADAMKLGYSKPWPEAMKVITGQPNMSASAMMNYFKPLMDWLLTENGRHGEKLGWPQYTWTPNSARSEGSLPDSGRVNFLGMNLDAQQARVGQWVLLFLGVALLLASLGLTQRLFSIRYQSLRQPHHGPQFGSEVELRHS
Experimental: b) ACE-inhibitory activity
The ACE-inhibitory activity was evaluated according to the method reported in the literature by B. Holmquist et al., in Analytical Biochemistry 95, 540-548 (1979).
[…] of ACE (250 mU/ml purified by lung rabbit, EC 3.4.15.1 SIGMA) were preincubated with 50 μl of the compound of formula I or of the comparison compound in thermostated cuvettes at 37° C.
The reaction was started by adding furylacryloylphenylalanylglycylglycine 0.8 mM (FAPGG-SIGMA).
Contemporaneously, by using a Beckman DU-50 spectrophotometer provided with a program for calculating delta A/minutes and regression coefficients of the enzyme kinetics curves, the absorbance at 340 nm was recorded in continuo for 5 minutes.
The percentage of the enzyme inhibition in the preparations treated with the compounds of formula I or with the comparative compounds with respect to the untreated preparations was expressed as IC50 (nM) value.

[2] = target: T2, NEP (membranes from rat kidney cortex) (Rattus norvegicus, UniProt P07861); experiment: In vitro NEP-inhibitory activity in rat kidney cortex membranes ([3H][Leu5]-enkephaline substrate); format: biochemical, male Sprague-Dawley rats; details: for IC50: 20 minutes at 30° C., [3H][Leu5]-enkephaline 15 nM
T2 construct: from tissue; host or cells: kidney cortex membranes of male Sprague-Dawley rats
T2 sequence (P07861 1-750): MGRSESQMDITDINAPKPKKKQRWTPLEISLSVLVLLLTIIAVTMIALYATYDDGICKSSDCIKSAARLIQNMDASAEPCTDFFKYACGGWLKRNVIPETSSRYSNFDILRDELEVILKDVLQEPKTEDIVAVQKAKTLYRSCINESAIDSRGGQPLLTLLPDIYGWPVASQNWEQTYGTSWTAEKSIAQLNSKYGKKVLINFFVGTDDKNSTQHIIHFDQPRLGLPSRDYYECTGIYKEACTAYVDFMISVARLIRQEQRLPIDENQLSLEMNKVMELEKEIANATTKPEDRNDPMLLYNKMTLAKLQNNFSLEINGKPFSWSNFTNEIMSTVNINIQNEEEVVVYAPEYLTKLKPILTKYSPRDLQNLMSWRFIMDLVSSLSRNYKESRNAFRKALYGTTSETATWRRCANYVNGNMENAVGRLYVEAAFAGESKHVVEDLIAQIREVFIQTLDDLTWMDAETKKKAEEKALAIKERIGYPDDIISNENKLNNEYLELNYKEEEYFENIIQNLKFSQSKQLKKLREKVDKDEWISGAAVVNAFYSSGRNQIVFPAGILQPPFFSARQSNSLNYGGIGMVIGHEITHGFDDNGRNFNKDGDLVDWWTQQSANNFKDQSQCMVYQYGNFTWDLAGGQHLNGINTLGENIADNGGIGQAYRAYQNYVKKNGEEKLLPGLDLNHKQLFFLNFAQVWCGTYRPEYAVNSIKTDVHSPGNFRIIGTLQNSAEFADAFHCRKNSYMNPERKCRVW
Experimental: a) NEP-inhibitory activity
The NEP-inhibitory activity was evaluated in membranes from rat kidney cortex prepared according to the procedure described by T. Maeda et al. in Biochim. Biophys. Acta 1983, 731(1), 115-120.
By working at 0°-4° C., kidneys were removed from male Sprague-Dawley rats weighing approximately 300 g.
Cortex was carefully dissected, finely minced and suspended in a homogenization buffer (10 mM sodium phosphate pH 7.4 containing 1 mM MgCl2, 30 mM NaCl, 0.02% NaN3) 1:15 weight/volume.
The tissue was then homogenized for 30 seconds using an Ultra-Turrax homogenizer.
Approximately 10 ml of homogenate were layered over 10 ml of sucrose (41% weight/volume) and centrifuged at 31200 rpm for 30 minutes at 4° C. in a fixed angle rotor. The membranes were collected from the buffer/sucrose interface, washed twice with 50 mM TRIS/HCl buffer (pH 7.4) and resuspended into the same buffer for storage.
The membranes were stored in small aliquots at -80° C. until use.
The NEP-inhibitory activity was evaluated according to the method described by C. Llorens et al., in Eur. J. Pharmacol., 69, (1981), 113-116, as reported hereinafter.
Aliquots of the membrane suspension prepared as above described (concentration 5 μg/ml of proteins) were preincubated in the presence of an aminopeptidase inhibitory (Bestatin--1 mM) for 10 minutes at 30° C.
[^3 H][Leu^5 ]-enkephaline (15 nM) and buffer TRIS/HCl pH 7.4 (50 mM) were added in order to obtain a final volume of 100 μl.
Incubation (20 minutes at 30° C.) was stopped by adding HCl 0.1M (100 μl).
The formation of the metabolite [^3 H]Tyr-Gly-Gly was quantified by chromatography on polystyrene columns (Porapak Q).

ACE/NEP = experiment: Ex vivo mixed/dual ACE/NEP-inhibitory activity (lung and kidney of SHR taken together); format: in vivo, spontaneously hypertensive rats (SHR); details: intravenous or oral
Experimental: The ex vivo ACE/NEP-inhibitory activity of the compounds of formula I, in particular, was evaluated by considering the enzymatic activity in tissue homogenates (lung and kidney for the ACE- and NEP-inhibitory activity, respectively) from spontaneously hypertensive rats (SHR), treated with the tested compounds by intravenous or oral route.
The inhibitory activity of the compounds of formula I was evaluated in kidneys of spontaneously hypertensive rats (SHR), 5 minutes after i.v. injection (0.6, 0.64 and 21 μmoles/kg) and 30 minutes, 60 minutes and 4 hours after oral administration (30 μmoles/kg) of the tested compounds.
The inhibitory activity of the compounds of formula I was evaluated in lungs of spontaneously hypertensive rats (SHR), 5 minutes after i.v. injection (0.6, 0.64 and 21 μmoles/kg) and 30 minutes, 60 minutes and 4 hours after oral administration (30 μmoles/kg) of the tested compounds.
As an example, the percentages of basal enzymatic activity obtained in the ex vivo tests after the administration of compounds 29 and 41, as representative compounds of formula I, and of the comparison compounds R-1, R-2, R-3 and R-4 are reported in the following table 2.

IC50 [1]	IC50 [2]	NEP-inhibitory activity % inhibition (10^-7 M) ([2]; concentration 10^-7 M)	inhibition at 0.1 µM ([2]; read-out: NEP-inhibitory activity % inhibition (10^-7 M), concentration 10^-7 M)	Compound	ex-vivo mixed/dual ACE/NEP-inhibitory activity, in words (ACE/NEP)
13 nM	2.9 nM			O=C(N[C@@H](Cc1ccc(-c2ccccc2)cc1)C(=O)O)C(CS)Cc1cccnc1 (single isomer, unassigned) [compound 50, N-[2-mercaptomethyl-3-(3-pyridyl)propionyl]-(1,1'-biphenyl-4-yl)-L-alanine hydrochloride]	
6 nM	3.7 nM			O=C(N[C@@H](Cc1ccc(-c2ccccc2)cc1)C(=O)O)C(CS)Cc1ccco1 (stereo partly drawn) [compound 52, N-[3-(2-furyl)-2-(mercaptomethyl)propionyl]-(1,1'-biphenyl-4-yl)-L-alanine]	
3.8 nM	1.2 nM			CC(C)C(CS)C(=O)N[C@@H](Cc1ccc(-c2ccccc2)cc1)C(=O)O (stereo partly drawn) [compound 49, N-(2-isopropyl-3-mercaptopropionyl)-(1,1'-biphenyl-4-yl)-L-alanine]	
5 nM	24 nM			CC(c1ccccc1)C(CS)C(=O)N[C@@H](C)C(=O)O (stereo partly drawn) [RB 105, N-[2-(mercaptomethyl)-3-phenylbutanoyl]-L-alanine, reference compound]	not confirmed by ex-vivo tests
7.5 nM	16 nM			COc1cccc(CC(CS)C(=O)N[C@@H](Cc2ccc(-c3ccccc3)cc2)C(=O)O)c1 (single isomer, unassigned) [compound 42, N-[2-mercaptomethyl-3-(3-methoxyphenyl)propionyl]-(1,1'-biphenyl-4-yl)-L-alanine]	
11 nM		76%		Cc1cc(CC(CS)C(=O)N[C@@H](Cc2ccc(-c3ccccc3)cc2)C(=O)O)on1 (single isomer, unassigned) [compound 54, N-[2-mercaptomethyl-3-(3-methyl-5-isoxazolyl)propionyl]-(1,1'-biphenyl-4-yl)-L-alanine]	
13 nM			94%	Cc1cc(CC(CS)C(=O)N[C@@H](Cc2ccc(-c3ccccc3)cc2)C(=O)O)on1 (single isomer, unassigned) [compound 53, N-[2-mercaptomethyl-3-(3-methyl-5-isoxazolyl)propionyl]-(1,1'-biphenyl-4-yl)-L-alanine]	
